# ChEMBL document CHEMBL1122455, “(Mercaptopropanoyl)indoline-2-carboxylic acids and related compounds as potent angiotensin converting enzyme inhibitors and antihypertensive agents” (J Med Chem, 1983)
# Key:
# [1] = molecular target: T1, Angiotensin-converting enzyme (Rattus norvegicus, UniProt P47820); assay: In vitro inhibitory activity against Angiotensin I converting enzyme
# T1 sequence (P47820 whole entry): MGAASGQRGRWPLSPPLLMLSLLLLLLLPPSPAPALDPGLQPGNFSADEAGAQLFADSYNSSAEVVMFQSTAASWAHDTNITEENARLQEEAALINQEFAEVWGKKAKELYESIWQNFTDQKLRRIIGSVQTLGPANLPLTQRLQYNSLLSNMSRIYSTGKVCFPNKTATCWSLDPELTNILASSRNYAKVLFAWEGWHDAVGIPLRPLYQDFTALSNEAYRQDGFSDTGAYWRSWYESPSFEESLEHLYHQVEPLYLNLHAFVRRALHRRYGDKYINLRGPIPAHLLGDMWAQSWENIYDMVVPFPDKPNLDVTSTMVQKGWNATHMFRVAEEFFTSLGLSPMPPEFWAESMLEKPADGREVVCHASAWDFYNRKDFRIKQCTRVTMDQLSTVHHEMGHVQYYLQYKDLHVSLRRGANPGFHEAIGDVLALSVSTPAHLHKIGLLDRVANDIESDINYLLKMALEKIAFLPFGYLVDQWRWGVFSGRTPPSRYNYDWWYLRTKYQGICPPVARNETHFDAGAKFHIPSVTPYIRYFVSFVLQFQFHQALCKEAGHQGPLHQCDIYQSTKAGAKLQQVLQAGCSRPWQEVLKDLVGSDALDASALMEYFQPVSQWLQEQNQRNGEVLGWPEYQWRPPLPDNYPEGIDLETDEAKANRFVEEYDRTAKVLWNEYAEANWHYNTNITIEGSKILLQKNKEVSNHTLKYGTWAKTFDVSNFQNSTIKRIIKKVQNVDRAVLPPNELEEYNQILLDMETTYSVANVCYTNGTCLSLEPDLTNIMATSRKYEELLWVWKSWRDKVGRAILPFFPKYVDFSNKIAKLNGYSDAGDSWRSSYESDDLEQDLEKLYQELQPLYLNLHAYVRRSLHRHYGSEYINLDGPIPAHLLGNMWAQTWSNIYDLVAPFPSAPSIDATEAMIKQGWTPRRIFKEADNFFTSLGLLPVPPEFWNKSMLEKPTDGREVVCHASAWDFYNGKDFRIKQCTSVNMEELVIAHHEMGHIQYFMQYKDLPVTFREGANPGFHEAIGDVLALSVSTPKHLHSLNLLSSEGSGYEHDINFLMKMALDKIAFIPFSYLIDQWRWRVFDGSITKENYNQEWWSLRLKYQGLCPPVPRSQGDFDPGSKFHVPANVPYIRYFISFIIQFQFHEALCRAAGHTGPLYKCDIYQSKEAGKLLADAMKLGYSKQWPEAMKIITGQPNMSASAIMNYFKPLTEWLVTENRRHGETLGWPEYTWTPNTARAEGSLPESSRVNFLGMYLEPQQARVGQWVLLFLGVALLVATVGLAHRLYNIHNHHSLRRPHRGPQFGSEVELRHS
# Rattus norvegicus [2] = assay: Dose required to lower blood pressure of SHR by 25 mmHg at 4-h post dose p.o.; assay type: functional; conditions: po
# Rattus norvegicus [3] = assay: Dose required to inhibit 50% of the angiotensin I induced vasopressor response p.o.; assay type: functional; conditions: po, read-out: ID50 (the source's name)
SMILES,IC50 [1] [µM],ED25 (Rattus norvegicus [2]) [mg/kg],ED50 (Rattus norvegicus [3]) [mg/kg]
CCc1ccc2c(c1)CC(C(=O)O)N2C(=O)C(C)CSC(=O)c1ccccc1 (stereo not drawn),0.03,> 100,–
C=CC(=O)N1c2ccccc2CC1C(=O)O (stereo not drawn),> 1000,–,–
C=C(C)C(=O)N1c2ccccc2C[C@@H]1C(=O)O,> 1000,–,–
C=C(C)C(=O)N1c2ccccc2CC1C(=O)O (stereo not drawn),> 1000,–,–
C[C@H](CSC[C@@H](C)C(=O)N1c2ccccc2C[C@H]1C(=O)O)C(=O)N1c2ccccc2C[C@H]1C(=O)O,1.3,24,–
COc1ccc2c(c1)CC(C(=O)O)N2C(=O)C(C)CSC(=O)c1ccccc1 (stereo not drawn) [listing 1 of 2 here],0.094,–,–
C=C(C)C(=O)N1c2ccccc2C[C@H]1C(=O)O,> 100,–,–
C=C(C)C(=O)N1c2ccc(OC)cc2CC1C(=O)O (stereo not drawn),> 1000,–,–
O=C(SCCC(=O)N1c2ccccc2CC1C(=O)O)c1ccccc1 (stereo not drawn),0.059,12.5,1.95
C[C@H](CSC(=O)c1ccccc1)C(=O)N1c2ccccc2C[C@H]1C(=O)O [listing 1 of 2 here],0.038,1.03,2
C[C@@H]1CSC(=O)[C@H]2Cc3ccccc3N2C1=O,20,–,–
C1CCC(NC2CCCCC2)CC1.COc1ccc2c(c1)C[C@@H](C(=O)O)N2C(=O)[C@H](C)CSC(=O)c1ccccc1,0.042,20,–
C[C@H](CSC(=O)c1ccccc1)C(=O)N1c2ccccc2C[C@H]1C(=O)O [listing 2 of 2 here],0.32,–,–
C[C@@H](CSC(=O)c1ccccc1)C(=O)N1c2ccccc2C[C@H]1C(=O)O,0.38,–,–
C[C@@H]1CSC(=O)[C@@H]2Cc3ccccc3N2C1=O,0.014,2,–
C[C@@H](CSC(=O)c1ccccc1)C(=O)N1c2ccccc2C[C@@H]1C(=O)O [listing 1 of 2 here],> 100,–,–
C1CCC(NC2CCCCC2)CC1.C[C@@H](CSC(=O)c1ccccc1)C(=O)N1c2ccccc2C[C@H]1C(=O)O,0.54,39,–
C[C@@H](CSC(=O)c1ccccc1)C(=O)N1c2ccccc2C[C@@H]1C(=O)O [listing 2 of 2 here],> 100,–,–
COc1ccc2c(c1)CC(C(=O)O)N2C(=O)C(C)CSC(=O)c1ccccc1 (stereo not drawn) [listing 2 of 2 here],0.097,–,–
C[C@@H](CSC(=O)c1ccccc1)C(=O)N1c2ccccc2C[C@H]1C(=O)O (racemic),3.5,–,–
C[C@@H](CSC(=O)c1ccccc1)C(=O)N1c2ccccc2C[C@@H]1C(=O)O (racemic),1.2,100,–
CC(CSC(=O)c1ccccc1)C(=O)N1c2ccccc2CC1C(=O)O (stereo in doubt; form 1),0.41,–,–
CC(=O)SCC(C)C(=O)N1c2ccccc2CC1C(=O)O (stereo in doubt; form 1),15,–,–
CC(CSC(=O)c1ccccc1)C(=O)N1c2ccccc2CC1C(=O)O (stereo in doubt; form 2),0.078,–,–
CC(=O)SCC(C)C(=O)N1c2ccccc2CC1C(=O)O (stereo in doubt; form 2),0.011,13,–
C[C@H](CS)C(=O)N1CCC[C@H]1C(=O)O [CAPTOPRIL],–,17.8,0.57
